For one experiment, the target named is T1, ghrelin receptor (Rattus norvegicus, UniProt O08725).
T1 construct: short-term cultures were generated of BLA cells and measured GH protein in the media following treatment with either MK-0677 or vehicle; endogenous in cells; host or cells: short-term cultures of basolateral amygdala (BLA) cells
Briefly: GH release from short-term BLA cell cultures after ghrelin receptor stimulation. To be noted: versus vehicle. It is filed as cell-based. How it is done:
(§1) Animals were killed 24 h after the last stress or handling session and the basolateral complex of the amygdala (BLA) was dissected. Growth hormone (GH) levels in the BLA were measured using enzyme-linked immunosorbent assay (ELISA). b) The herpes simplex virus (HSV)-based viral vectors expressing either green fluorescent protein (GFP; CON) or recombinant rat GH (rGH) was infused in the BLA and expression was assessed after behavioral testing was complete. Representative GFP expression from two rats is shown. c) Auditory Pavlovian fear conditioning was performed 3 days after HSV virus infusions. d) Long-term fear memory was assessed by placing the animals in a novel context and measuring conditional freezing following tone presentation 48 h after the conditioning session. e) Short-term BLA cell cultures were used to measure GH release following treatment with a ghrelin receptor agonist (MK) or vehicle (VEH). f) Adeno-associated virus (AAV) constructs were generated to examine the contribution of GH-mediated signaling in the BLA to ghrelin-induced potentiation of fear. g) Following infusion of the AAVs into the BLA and recovery, rats received 10 days of systemic injection of either a ghrelin receptor agonist (MK) or vehicle (VEH). […]

A further experiment deals with endogenous GH. In words: Auditory fear conditioning after intra-BLA AAV (GHA or GFP) and 10 days of systemic MK-0677 or saline. The following applies: 10 days MK-0677 or saline, tested 48 h after conditioning. It is filed as in vivo, rat. Here is the method: as §1
The next experiment relates to GH. To be noted: Varga et al, Proc. Natl. Acad. Sci. USA 1999; cited from earlier work.

T1 sequence (O08725 whole entry): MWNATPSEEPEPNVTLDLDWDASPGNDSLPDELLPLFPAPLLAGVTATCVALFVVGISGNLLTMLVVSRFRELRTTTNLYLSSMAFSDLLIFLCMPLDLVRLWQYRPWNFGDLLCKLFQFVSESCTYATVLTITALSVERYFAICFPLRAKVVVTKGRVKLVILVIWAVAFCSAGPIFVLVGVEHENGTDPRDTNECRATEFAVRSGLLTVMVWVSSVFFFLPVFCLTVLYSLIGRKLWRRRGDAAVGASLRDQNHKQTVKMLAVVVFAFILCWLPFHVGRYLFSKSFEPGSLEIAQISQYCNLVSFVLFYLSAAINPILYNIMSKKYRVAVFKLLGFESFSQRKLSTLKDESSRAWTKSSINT

For `CC(C)(N)C(=O)N[C@H](COCc1ccccc1)C(=O)N1CCC2(CC1)CN(S(C)(=O)=O)c1ccccc12` [MK-0677], at ghrelin receptor, the “release of GH into the media” value is listed as “significantly elevated release of GH”. The “long-term auditory fear memory” value in the experiment with endogenous GH is reported as “fear-enhancing effects”.

As for “[PhAc-Tyr1,DArg2, Phe(4-Cl)6,Arg9,Abu15,Nle27,D-Arg29]hGH-RH(1-29)NH2 [JV-1-10]”, the antagonistic activity entry in the experiment with GH is “high and or protracted antagonistic activity”.

As for “[PhAc-Tyr1,D-Arg2,Phe(4-Cl)6, Har9,Tyr(Me)10,Abu15,Nle27,D-Arg28,Har29]hGH-RH(1-29)NH2 [JV-1-38]”, the antagonistic activity entry in the experiment on GH is “high and or protracted antagonistic activity”.

As for “[PhAc-Tyr1,D-Arg2,Phe(4-Cl)6,Abu15,Nle27, D-Arg28,Har29]hGH-RH(1-29)NH2 [MZ-6-55]”, the antagonistic activity entry with GH was “high and or protracted antagonistic activity”.

On to “[PhAc-Tyr1,DArg2, Phe(4-Cl)6,Arg9,Abu15,Nle27,D-Arg28,Har29]hGH-RH(1-29)NH2 [JV-1-36]”, for which, in the experiment with GH, the antagonistic activity result was “high and or protracted antagonistic activity”.

Source of the values: patent US9724396B2, “Use of antagonists of growth hormone or growth hormone receptor to prevent or treat stress-sensitive psychiatric illness” (Massachusetts Institute of Technology, priority 2013, dated 2017).
